Data from PubChem BioAssay AID668 (University of Pittsburgh Molecular Library Screening Center, 2007).

Molecular target: M-phase inducer phosphatase 2 (Homo sapiens) (UniProt P30305)
Experiment: Cdc25B phosphatase inhibitors with catalase present, dose response, biochemical, probe assessment (AID 668)
Conditions: recombinant Cdc25B catalytic domain, phosphatase activity

Sequence of M-phase inducer phosphatase 2 (Homo sapiens) (P30305 whole entry, looked up): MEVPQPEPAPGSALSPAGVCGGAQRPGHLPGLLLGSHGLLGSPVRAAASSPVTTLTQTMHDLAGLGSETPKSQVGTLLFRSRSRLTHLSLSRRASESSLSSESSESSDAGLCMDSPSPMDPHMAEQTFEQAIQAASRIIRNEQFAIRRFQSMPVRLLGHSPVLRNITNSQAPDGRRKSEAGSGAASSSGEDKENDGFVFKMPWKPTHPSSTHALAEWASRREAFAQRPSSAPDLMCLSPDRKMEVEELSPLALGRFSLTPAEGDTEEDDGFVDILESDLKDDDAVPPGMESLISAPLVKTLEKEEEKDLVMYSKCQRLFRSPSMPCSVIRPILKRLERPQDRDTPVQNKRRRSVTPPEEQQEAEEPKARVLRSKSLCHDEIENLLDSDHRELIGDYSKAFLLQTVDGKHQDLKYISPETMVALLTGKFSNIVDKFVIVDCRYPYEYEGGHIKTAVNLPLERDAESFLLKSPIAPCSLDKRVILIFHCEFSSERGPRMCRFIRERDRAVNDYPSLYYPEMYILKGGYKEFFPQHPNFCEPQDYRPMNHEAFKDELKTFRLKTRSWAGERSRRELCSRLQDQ

IC50 [µM] | Structure (SMILES)
15.7 | c1ccc(CSc2nnc(-c3ccco3)c(-c3ccco3)n2)cc1
7.11 | COc1cccc2c(C)c(C(=O)O)[nH]c12
